# According to US9296732B2, “Substituted benzamides and their uses” (The Board of Trustees of the Leland Stanford Junior …, priority 2012, dated 2016):
# System: RCC4/VHL
# Assay: XTT cell viability assay, RCC4 with VHL-reintroduced (RCC4/VHL) versus RCC4, selectivity ratio
# Assay type: cell-based
# Details: second TABLE 1 (Examples 39-55)
# Procedure: RCC4 parental and RCC4 with VHL-reintroduced (RCC4/VHL), SN12C and SN12C-CSCG-VHL shRNA were maintained in DMEM supplemented with 10% FCS.
# For 2,3-bis[2-methoxy-4-nitro-5-sulfophenyl]-2H-tetrazolium-5-carboxanilide (XTT) assays, five thousand cells were plated in 96-well plates. The next day, vehicle (DMSO) or drug was added by serial dilution. Four days later, media were aspirated, XTT solution (0.3 mg/ml of XTT (Sigma), 2.65 mg/ml N-methyl dibenxopyrazine methyl sulfate (Simga) in phenol red-free media) was added, and the plates were incubated at 37° C. for 1-2 hours. Metabolism of XTT was quantified by measuring the absorbance at 450 nm. IC50s were calculated using linear interpolation. For clonogenic survival assays, three hundred cells were plated per 60 mm tissue culture dish. The cells were allowed to attach overnight and then treated with vehicle or drug for 14 days. Colonies were fixed and stained with crystal violet (0.1% crystal violet in 95% ethanol). All conditions were measured in triplicate and each experiment was done in duplicate or triplicate. To determine necrosis, cells were treated with drug for a given time point. Media and cells were collected, centrifugated, and resuspended in 0.4% trypan blue (Invitrogen). Live and dead cells were counted on a hematocytometer.
# The designation A reflects an IC50 of <1 nM; B reflects an IC50 ranging from 1 to 20 nM; and C is an IC50 of >20 nM. The designation “a” reflects a ratio of RCC4/RCC-VHL+ ranging from 1 to ≦10; “b” reflects from 10 to ≦100; “c” reflects a ratio of >100. Compounds 1-29 have an IC50 value of ≦10 μM when tested in the above assay.
row,SMILES,Ratio (IC50 RCC4 Proficient VHL)/IC50 RCC4 Deficient VHL)
1,"Cc1oc(-c2ccc(C(=O)NCc3cccnc3)cc2)nc1CS(=O)(=O)C1CCNCC1 [Example 39, 4-(5-Methyl-4-((piperidin-4-ylsulfonyl)methyl)oxazol-2-yl)-N-(pyridin-3-ylmethyl)benzamide]",b (from 10 to ≦100)
2,"Cc1oc(-c2ccc(C(=O)NCc3cccnc3)cc2)nc1CS(=O)(=O)C1CCN(C)CC1 [Example 40, 4-(5-Methyl-4-((1-methylpiperidin-4-ylsulfonyl)methyl)oxazol-2-yl)-N-(pyridin-3-ylmethyl)benzamide]",b (from 10 to ≦100)
3,Cc1oc(-c2ccc(C(=O)NCc3cccnc3)cc2)nc1CS(=O)(=O)[C@H]1CC[C@@H](N2CCCC2)CC1 [Example 42],b (from 10 to ≦100)
4,Cc1oc(-c2ccc(C(=O)NCc3cccnc3)cc2)nc1CS(=O)(=O)[C@H]1CC[C@@H](N2CCCCC2)CC1 [Example 43],b (from 10 to ≦100)

# System: not given
# Assay: not given
# Details: not given
row,SMILES,melting point
1,"Cc1ccc(S(=O)(=O)Cc2nc(-c3ccc(C(=O)Nc4cccnc4)cc3)oc2C)cc1 [Example 1, 4-(5-Methyl-4-{[(4-methylphenyl)sulfonyl]methyl}-1,3-oxazol-2-yl)-N-(3-pyridinyl)benzamide]",248 to 250 °C
2,"Cc1ccc(S(=O)(=O)Cc2nc(-c3ccc(C(=O)Nc4ccncc4)cc3)oc2C)cc1 [Example 2, 4-(5-Methyl-4-{[(4-methylphenyl)sulfonyl]methyl}-1,3-oxazol-2-yl)-N-(4-pyridinyl)benzamide]",229 to 231 °C
3,"Cc1ccc(S(=O)(=O)Cc2nc(-c3ccc(C(=O)N(C)c4cccnc4)cc3)oc2C)cc1 [Example 3, N-Methyl-4-(5-methyl-4-{[(4-methylphenyl)sulfonyl]methyl}-1,3-oxazol-2-yl)-N-(3-pyridinyl)benzamide]",195 to 197 °C
4,"Cc1ccc(S(=O)(=O)Cc2nc(-c3ccc(C(=O)NCc4ccccn4)cc3)oc2C)cc1 [Example 4, 4-(5-Methyl-4-{[(4-methylphenyl)sulfonyl]methyl}-1,3-oxazol-2-yl)-N-(2-pyridinylmethyl)benzamide]",154 to 155 °C
5,"Cc1ccc(S(=O)(=O)Cc2nc(-c3ccc(C(=O)NCc4ccncc4)cc3)oc2C)cc1 [Example 6, 4-(5-Methyl-4-{[(4-methylphenyl)sulfonyl]methyl}-1,3-oxazol-2-yl)-N-(4-pyridinylmethyl)benzamide]",169 to 172 °C
6,"Cc1ccc(S(=O)(=O)Cc2nc(-c3ccc(C(=O)N(C)Cc4cccnc4)cc3)oc2C)cc1 [Example 7, N-Methyl-4-(5-methyl-4-{[(4-methylphenyl)sulfonyl]methyl}-1,3-oxazol-2-yl)-N-(3-pyridinylmethyl)benzamide]",77 to 80 °C
7,"Cc1ccc(S(=O)(=O)Cc2nc(-c3ccc(C(=O)NCCc4cccnc4)cc3)oc2C)cc1 [Example 8, 4-(5-Methyl-4-{[(4-methylphenyl)sulfonyl]methyl}-1,3-oxazol-2-yl)-N-[2-(3-pyridinyl)ethyl]benzamide]",207 to 208 °C
8,"Cc1ccc(S(=O)(=O)Cc2nc(-c3ccc(C(=O)NCc4cnccn4)cc3)oc2C)cc1 [Example 9, 4-(5-Methyl-4-{[(4-methylphenyl)sulfonyl]methyl}-1,3-oxazol-2-yl)-N-(2-pyrazinylmethyl)benzamide]",204 to 206 °C
9,"Cc1ccc(S(=O)(=O)Cc2nc(-c3ccc(C(=O)NCc4nccn4C)cc3)oc2C)cc1 [Example 10, N-[(1-Methyl-1H-imidazol-2-yl)methyl]-4-(5-methyl-4-{[(4-methylphenyl)sulfonyl]methyl}-1,3-oxazol-2-yl)benzamide]",190 to 192 °C
10,"Cc1ccc(S(=O)(=O)Cc2nc(-c3ccc(C(=O)NCc4cncn4C)cc3)oc2C)cc1 [Example 11, N-[(1-Methyl-1H-imidazol-5-yl)methyl]-4-(5-methyl-4-{[(4-methylphenyl)sulfonyl]methyl}-1,3-oxazol-2-yl)benzamide]",240 to 242 °C
11,"Cc1oc(-c2ccc(C(=O)NCc3cccnc3)cc2)nc1CS(=O)(=O)c1ccccc1 [Example 12, 4-[5-Methyl-4-[(phenylsulfonyl)methyl]-1,3-oxazol-2-yl]-N-(3-pyridinylmethyl)benzamide]",196 to 198 °C
12,"Cc1oc(-c2ccc(C(=O)NCc3cccnc3)cc2)nc1CS(=O)(=O)c1ccc(Cl)cc1 [Example 13, 4-(4-{[(4-Chlorophenyl)sulfonyl]methyl}-5-methyl-1,3-oxazol-2-yl)-N-(3-pyridinylmethyl)benzamide]",220 to 222 °C
13,"Cc1oc(-c2ccc(C(=O)NCc3cccnc3)cc2)nc1CS(=O)(=O)c1ccc(C(C)(C)C)cc1 [Example 14, 4-(4-{[(4-tert-Butylphenyl)sulfonyl]methyl}-5-methyl-1,3-oxazol-2-yl)-N-(3-pyridinylmethyl)benzamide]",177 to 180 °C
14,"Cc1cc(C)cc(S(=O)(=O)Cc2nc(-c3ccc(C(=O)NCc4cccnc4)cc3)oc2C)c1 [Example 15, 4-(4-{[(3,5-Dimethylphenyl)sulfonyl]methyl}-5-methyl-1,3-oxazol-2-yl)-N-(3-pyridinylmethyl)benzamide]",188 to 190 °C
15,"Cc1oc(-c2ccc(C(=O)NCc3cccnc3)cc2)nc1CS(=O)(=O)c1ccc(Br)cc1 [Example 16, 4-(4-{[(4-Bromophenyl)sulfonyl]methyl}-5-methyl-1,3-oxazol-2-yl)-N-(3-pyridinylmethyl)benzamide]",224 to 227 °C
16,"Cc1cccc(S(=O)(=O)Cc2nc(-c3ccc(C(=O)NCc4cccnc4)cc3)oc2C)c1 [Example 17, 4-(5-Methyl-4-{[(3-methylphenyl)sulfonyl]methyl}-1,3-oxazol-2-yl)-N-(3-pyridinylmethyl)benzamide]",179 to 181 °C
17,"COc1ccc(S(=O)(=O)Cc2nc(-c3ccc(C(=O)NCc4cccnc4)cc3)oc2C)cc1 [Example 18, 4-(4-{[(4-Methoxyphenyl)sulfonyl]methyl}-5-methyl-1,3-oxazol-2-yl)-N-(3-pyridinylmethyl)benzamide]",189 to 191 °C
18,"COc1cccc(S(=O)(=O)Cc2nc(-c3ccc(C(=O)NCc4cccnc4)cc3)oc2C)c1 [Example 19, 4-(5-Methyl-4-{[(3-methoxyphenyl)sulfonyl]methyl}-1,3-oxazol-2-yl)-N-(3-pyridinylmethyl)benzamide]",143 to 145 °C
19,"COc1ccc(S(=O)(=O)Cc2nc(-c3ccc(C(=O)NCc4cccnc4)cc3)oc2C)cc1OC [Example 20, 4-(4-{[(3,4-Dimethoxyphenyl)sulfonyl]methyl}-5-methyl-1,3-oxazol-2-yl)-N-(3-pyridinylmethyl)benzamide]",104 to 108 °C
20,"Cc1oc(-c2ccc(C(=O)NCc3cccnc3)cc2)nc1CS(=O)(=O)c1ccc(F)cc1 [Example 22, 4-(4-{[(4-Fluorophenyl)sulfonyl]methyl}-5-methyl-1,3-oxazol-2-yl)-N-(3-pyridinylmethyl)benzamide]",218 to 220 °C
21,"Cc1oc(-c2ccc(C(=O)NCc3cccnc3)cc2)nc1CS(=O)(=O)c1ccc(N2CCN(C)CC2)cc1 [Example 23, 4-[5-Methyl-4-({[4-(4-methyl-1-piperazinyl)phenyl]sulfonyl}methyl)-1,3-oxazol-2-yl]-N-(3-pyridinylmethyl)benzamide]",210 to 215 °C
22,"Cc1oc(-c2ccc(C(=O)NCc3cccnc3)cc2)nc1CS(=O)(=O)c1ccc(N2CCOCC2)cc1 [Example 24, 4-[5-Methyl-4-({[4-(4-morpholinyl)phenyl]sulfonyl}methyl)-1,3-oxazol-2-yl]-N-(3-pyridinylmethyl)benzamide]",208 to 210 °C
23,"Cc1ccc(S(=O)(=O)Cc2csc(-c3ccc(C(=O)NCc4cccnc4)cc3)n2)cc1 [Example 25, 4-(4-{[(4-Methylphenyl)sulfonyl]methyl}-1,3-thiazol-2-yl)-N-(3-pyridinylmethyl)benzamide]",178 to 181 °C
24,"Cc1oc(-c2ccc(C(=O)NCc3ccccc3)cc2)nc1CS(=O)(=O)c1ccc(Br)cc1 [Example 27, N-Benzyl-4-(4-{[(4-bromophenyl)sulfonyl]methyl}-5-methyl-1,3-oxazol-2-yl)benzamide]",234 to 237 °C
25,"O=C(Nc1cccnc1)c1ccc(CNS(=O)(=O)c2ccc(Cl)nc2)cc1 [II-2, 4-({[(6-Chloro-3-pyridinyl)sulfonyl]amino}methyl)-N-(3-pyridinyl)benzamide]",226 to 228 °C
26,"Cc1ncc(S(=O)(=O)NCc2ccc(C(=O)Nc3cccnc3)cc2)n1C [II-6, 4-({[(1,2-Dimethyl-1H-imidazol-5-yl)sulfonyl]amino}methyl)-N-(3-pyridinyl)benzamide]",238 to 240 °C
27,"O=C(Nc1cccnc1)c1ccc(CNS(=O)(=O)c2nnc[nH]2)cc1 [II-7, N-(3-pyridinyl)-4-{[(4H-1,2,4-triazol-3-ylsulfonyl)amino]methyl}benzamide]",266 to 269 °C
